Measurements taken from PMC8342458, “GluN2A and GluN2B NMDA receptors use distinct allosteric routes” (Nature Communications, 2021).
Values joined by “and” are separate entries in the source; they are usually repeats but may differ in a detail not shown here. Equal values may be shown once. Read-outs that look alike come from different tables or passages of the source.

Assays:
[1] = target: T1, wild-type (wt) GluN1/GluN2A receptors (Rattus norvegicus, UniProt P35439+Q00959); assay: TEVC recordings in Xenopus oocytes, allosteric modulator sensitivity; format: cell-based; settings: for Izn/Io 1 nM: 1 nM zinc; for Izn/Io 10 nM: 10 nM zinc; for Izn/Io 50 nM: 50 nM zinc; for Izn/Io 500 nM: 500 nM zinc; for Izn/Io 1000 nM: 1000 nM zinc
T1 construct: For full-length multimeric membrane-embedded receptors studied in cellulo, as done in the present work; expressed in transfected cells; host or cells: Xenopus laevis oocytes (nuclear cDNA injection, pcDNA3 plasmids)
Protocol: (§1) The pcDNA3-based expression plasmids for rat GluN1-1a (named GluN1 herein), rat GluN2A, and mouse GluN2B (also known as ε2) subunits, Pfu-based site-directed mutagenesis strategy, and sequencing procedure have been described previously[68],[69]. Incorporation of the unnatural amino acids (UAAs) AzF and BzF into NMDARs was performed using the genetic code expansion methodology as previously described[52],[53],[83]. The plasmid pSVB.Yam carrying the gene encoding the amber suppressor tRNA derived from B. stearothermophilus Tyr-tRNACUA, while the aminoacyl-tRNA synthetases (aaRS) construction for AzF and BzF derived from E. coli TyrRS[84],[85].
(§2) Recombinant NMDARs were expressed in Xenopus laevis oocytes after nuclear injection of 36 nl of a mixture of cDNAs (at 10–30 ng/μl) encoding various GluN1 and GluN2 subunits (ratio 1:1). Oocytes were prepared, injected, incubated, and voltage-clamped as described previously. For UAA incorporation, oocytes were co-injected with 36 nl of a cDNA mixture encoding for of GluN1, GluN2, Yam, and aaRS as follows, unless otherwise indicated in the text: GluN1-K178amber (120 ng/μl), GluN2A (80 ng/µl) or GluN2B (120 ng/μl), Yam (10 ng/μl), AzF-RS (5 ng/μl). After injection, oocytes were incubated at 19 °C in a Barth solution containing (in mM) 88 NaCl, 1 KCl, 0.33 Ca(NO3)2, 0.41 CaCl2, 0.82 MgSO4, 2.4 NaHCO3, 10 HEPES (pH adjusted to 7.6 with NaOH) supplemented with gentamicin ([…]) and the NMDAR glutamate binding site competitive antagonist D-APV (50 μM). AzF and BzF were added to the incubation medium at final concentrations of 1 mM and 2 mM, respectively.
(§3) For all experiments, except those on pH and spermine sensitivity, the standard external solution contained (in mM): 100 NaCl, 0.3 BaCl2, and 5 HEPES (pH adjusted to 7.3 with KOH). […] For the pH and spermine sensitivity experiments, an external solution enriched in HEPES was used to insure proper pH buffering. Unless otherwise mentioned, NMDAR-mediated currents were induced by simultaneously applications of saturating concentrations of glutamate and glycine (100 μM each). Glutamate and glycine dose-response curves (DRC) were performed in the presence of 100 µM glycine and 100 µM glutamate, respectively. Recordings were performed at a holding potential of −60 mV and at room temperature. Data were collected and analyzed using Clampex 10.5 and Clampfit 10.5 (Molecular Devices), respectively, and fitted using KaleidaGraph 4.0 (Synergy software).
(§4) EC50 and nH were fitted as free parameters. […] For proton DRC, corrections for small shifts in the reference potential of bath electrodes and analysis of the data were performed as previously described. Spermine experiments were performed and analyzed as previously described. In brief, spermine sensitivity was assessed at pH 6.5 and at a holding potential of −30 mV to maximize the spermine induced potentiation. […] EC50, a and nH were set as free parameters. MK-801 is an NMDAR open channel blocker with slow reversibility and, consequently, the rate at which MK-801 inhibits NMDAR responses depends on the level of channel activity, that is, channel open probability (Po). Based on this principle, MK-801 is classically used to estimate the level of NMDAR channel activity in macroscopic whole-cell recordings[36],[47],[56],[86],[87]. Note, however, that MK- 801 inhibition kinetics can index relative, not absolute, Po. MK-801 solutions (10 nM for GluN2A-containing receptors and 50 nM for GluN2B-containing receptors) were prepared by dilution of a stock solution (50 mM) into the agonist containing solutions. MK-801 time constants of inhibition (τon) were obtained by fitting currents with a single-exponential component to a time window corresponding to 10–90% of maximum inhibition. On-rate (kon) constants were then calculated assuming a pseudo first-order reaction scheme: kon = 1 / ([MK-801]*τon).

[2] = target: T2, GluN1-L777C/GluN2B-E517C-L781C receptors (UniProt P35439+Q01097, E517C/L777C/L781C/N521C); assay: TEVC recordings in Xenopus oocytes, zinc and ifenprodil inhibition dose-response; format: cell-based, rat (GluN1), mouse (GluN2B); settings: read-out: Zn2+ IC50
T2 construct: For full-length multimeric membrane-embedded receptors studied in cellulo, as done in the present work; expressed in transfected cells; host or cells: Xenopus laevis oocytes
Protocol: as §1, §2, §3, §4

[3] = target: T3, GluN1-N512C-L777C/GluN2B-E517C-L781C receptors (UniProt P35439+Q01097, E517C/L777C/L781C/N521C); assay: as above; format: cell-based, rat (GluN1), mouse (GluN2B)
T3 construct: For full-length multimeric membrane-embedded receptors studied in cellulo, as done in the present work; expressed in transfected cells; host or cells: Xenopus laevis oocytes
Protocol: as §1, §2, §3, §4

[4] = target: T4, GluN1/GluN2B-N218C receptors (UniProt P35439+Q01097, N218C); assay: as above; format: cell-based, rat (GluN1), mouse (GluN2B)
T4 construct: For full-length multimeric membrane-embedded receptors studied in cellulo, as done in the present work; expressed in transfected cells; host or cells: Xenopus laevis oocytes
Protocol: as §1, §2, §3, §4

[5] = target: T5, wild-type (wt) GluN1/GluN2B receptors (UniProt P35439+Q01097); assay: TEVC recordings in Xenopus oocytes, allosteric modulator sensitivity; format: cell-based, rat (GluN1), mouse (GluN2B)
T5 construct: For full-length multimeric membrane-embedded receptors studied in cellulo, as done in the present work; expressed in transfected cells; host or cells: Xenopus laevis oocytes (nuclear cDNA injection, pcDNA3 plasmids)
Protocol: as §1, §2, §3, §4

T3 sequence (Q01097 27-1482 E517C/L781C, other chains not shown): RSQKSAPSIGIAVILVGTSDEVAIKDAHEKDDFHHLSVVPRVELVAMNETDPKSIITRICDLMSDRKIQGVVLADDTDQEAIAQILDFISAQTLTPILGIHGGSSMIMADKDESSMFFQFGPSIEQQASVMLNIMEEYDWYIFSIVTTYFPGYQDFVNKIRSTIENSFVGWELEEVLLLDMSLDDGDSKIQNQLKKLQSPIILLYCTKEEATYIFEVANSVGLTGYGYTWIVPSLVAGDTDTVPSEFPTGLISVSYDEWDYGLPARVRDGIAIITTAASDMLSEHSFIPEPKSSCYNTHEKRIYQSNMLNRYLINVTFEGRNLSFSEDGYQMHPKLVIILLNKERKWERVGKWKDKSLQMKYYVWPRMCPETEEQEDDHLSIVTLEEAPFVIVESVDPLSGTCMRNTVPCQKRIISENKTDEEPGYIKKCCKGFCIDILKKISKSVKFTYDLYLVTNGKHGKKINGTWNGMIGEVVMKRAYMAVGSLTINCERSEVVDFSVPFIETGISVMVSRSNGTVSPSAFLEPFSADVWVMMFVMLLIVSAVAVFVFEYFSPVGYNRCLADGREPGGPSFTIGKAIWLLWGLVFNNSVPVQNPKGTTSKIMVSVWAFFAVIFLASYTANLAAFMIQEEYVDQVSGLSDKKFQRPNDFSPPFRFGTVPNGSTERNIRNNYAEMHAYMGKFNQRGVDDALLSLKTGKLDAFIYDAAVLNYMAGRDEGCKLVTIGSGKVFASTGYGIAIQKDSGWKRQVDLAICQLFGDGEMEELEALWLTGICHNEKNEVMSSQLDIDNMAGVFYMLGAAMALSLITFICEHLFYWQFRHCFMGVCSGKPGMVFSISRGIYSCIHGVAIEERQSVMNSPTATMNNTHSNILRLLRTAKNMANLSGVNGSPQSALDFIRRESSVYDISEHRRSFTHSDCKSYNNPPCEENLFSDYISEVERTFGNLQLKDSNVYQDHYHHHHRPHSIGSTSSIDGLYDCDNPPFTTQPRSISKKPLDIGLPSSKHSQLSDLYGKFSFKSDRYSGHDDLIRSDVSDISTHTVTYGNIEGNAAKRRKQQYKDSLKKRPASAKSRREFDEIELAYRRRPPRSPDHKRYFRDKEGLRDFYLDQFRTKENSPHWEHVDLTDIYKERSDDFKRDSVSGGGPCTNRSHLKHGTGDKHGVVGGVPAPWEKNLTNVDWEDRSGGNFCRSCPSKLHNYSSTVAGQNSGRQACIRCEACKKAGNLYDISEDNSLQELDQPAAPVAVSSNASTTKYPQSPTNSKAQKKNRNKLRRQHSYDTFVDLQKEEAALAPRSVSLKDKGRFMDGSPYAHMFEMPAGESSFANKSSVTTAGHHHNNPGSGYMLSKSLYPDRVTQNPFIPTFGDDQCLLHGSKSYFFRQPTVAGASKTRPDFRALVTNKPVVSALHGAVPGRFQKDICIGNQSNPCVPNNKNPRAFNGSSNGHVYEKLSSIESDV
T5 sequence (Q01097 27-1482, other chains not shown): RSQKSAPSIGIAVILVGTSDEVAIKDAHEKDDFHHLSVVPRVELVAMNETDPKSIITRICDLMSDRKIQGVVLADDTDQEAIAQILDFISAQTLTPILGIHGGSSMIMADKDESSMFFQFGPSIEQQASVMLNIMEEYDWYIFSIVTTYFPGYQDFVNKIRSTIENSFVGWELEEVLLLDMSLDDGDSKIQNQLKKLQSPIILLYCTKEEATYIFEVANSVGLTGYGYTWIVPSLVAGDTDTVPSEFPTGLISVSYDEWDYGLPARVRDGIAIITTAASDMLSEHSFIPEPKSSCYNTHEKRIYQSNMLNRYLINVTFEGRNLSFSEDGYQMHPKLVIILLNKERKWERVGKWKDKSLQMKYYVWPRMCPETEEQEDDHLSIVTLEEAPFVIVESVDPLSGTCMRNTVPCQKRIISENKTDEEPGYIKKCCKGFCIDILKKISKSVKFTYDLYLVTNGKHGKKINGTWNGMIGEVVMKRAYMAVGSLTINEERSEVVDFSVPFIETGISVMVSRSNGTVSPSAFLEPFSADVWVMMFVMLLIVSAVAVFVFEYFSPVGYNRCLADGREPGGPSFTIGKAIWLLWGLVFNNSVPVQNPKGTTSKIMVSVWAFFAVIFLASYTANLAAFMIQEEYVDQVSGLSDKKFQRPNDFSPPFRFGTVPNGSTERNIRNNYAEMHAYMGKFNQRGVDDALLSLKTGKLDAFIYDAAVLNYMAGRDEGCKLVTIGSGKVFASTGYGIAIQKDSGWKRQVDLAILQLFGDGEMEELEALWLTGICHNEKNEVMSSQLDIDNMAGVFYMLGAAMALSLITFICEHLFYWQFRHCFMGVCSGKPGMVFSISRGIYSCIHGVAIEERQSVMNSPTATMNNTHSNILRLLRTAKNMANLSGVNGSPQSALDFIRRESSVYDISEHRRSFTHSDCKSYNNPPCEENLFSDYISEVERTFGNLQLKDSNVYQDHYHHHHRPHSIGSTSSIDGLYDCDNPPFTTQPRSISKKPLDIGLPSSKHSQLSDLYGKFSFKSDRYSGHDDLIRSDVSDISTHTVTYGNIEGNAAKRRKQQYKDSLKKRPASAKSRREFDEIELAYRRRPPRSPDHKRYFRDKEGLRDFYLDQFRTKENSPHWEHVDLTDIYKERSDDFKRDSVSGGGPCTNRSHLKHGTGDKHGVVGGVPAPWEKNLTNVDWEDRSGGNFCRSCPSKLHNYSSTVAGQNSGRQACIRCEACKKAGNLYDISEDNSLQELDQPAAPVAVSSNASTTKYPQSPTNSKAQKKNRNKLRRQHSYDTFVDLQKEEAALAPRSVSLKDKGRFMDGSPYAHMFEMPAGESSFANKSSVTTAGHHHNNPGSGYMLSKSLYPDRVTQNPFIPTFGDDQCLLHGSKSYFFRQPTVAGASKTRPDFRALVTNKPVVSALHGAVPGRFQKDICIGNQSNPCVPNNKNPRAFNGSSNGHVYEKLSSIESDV
T1 sequence (Q00959 23-1464, other chains not shown): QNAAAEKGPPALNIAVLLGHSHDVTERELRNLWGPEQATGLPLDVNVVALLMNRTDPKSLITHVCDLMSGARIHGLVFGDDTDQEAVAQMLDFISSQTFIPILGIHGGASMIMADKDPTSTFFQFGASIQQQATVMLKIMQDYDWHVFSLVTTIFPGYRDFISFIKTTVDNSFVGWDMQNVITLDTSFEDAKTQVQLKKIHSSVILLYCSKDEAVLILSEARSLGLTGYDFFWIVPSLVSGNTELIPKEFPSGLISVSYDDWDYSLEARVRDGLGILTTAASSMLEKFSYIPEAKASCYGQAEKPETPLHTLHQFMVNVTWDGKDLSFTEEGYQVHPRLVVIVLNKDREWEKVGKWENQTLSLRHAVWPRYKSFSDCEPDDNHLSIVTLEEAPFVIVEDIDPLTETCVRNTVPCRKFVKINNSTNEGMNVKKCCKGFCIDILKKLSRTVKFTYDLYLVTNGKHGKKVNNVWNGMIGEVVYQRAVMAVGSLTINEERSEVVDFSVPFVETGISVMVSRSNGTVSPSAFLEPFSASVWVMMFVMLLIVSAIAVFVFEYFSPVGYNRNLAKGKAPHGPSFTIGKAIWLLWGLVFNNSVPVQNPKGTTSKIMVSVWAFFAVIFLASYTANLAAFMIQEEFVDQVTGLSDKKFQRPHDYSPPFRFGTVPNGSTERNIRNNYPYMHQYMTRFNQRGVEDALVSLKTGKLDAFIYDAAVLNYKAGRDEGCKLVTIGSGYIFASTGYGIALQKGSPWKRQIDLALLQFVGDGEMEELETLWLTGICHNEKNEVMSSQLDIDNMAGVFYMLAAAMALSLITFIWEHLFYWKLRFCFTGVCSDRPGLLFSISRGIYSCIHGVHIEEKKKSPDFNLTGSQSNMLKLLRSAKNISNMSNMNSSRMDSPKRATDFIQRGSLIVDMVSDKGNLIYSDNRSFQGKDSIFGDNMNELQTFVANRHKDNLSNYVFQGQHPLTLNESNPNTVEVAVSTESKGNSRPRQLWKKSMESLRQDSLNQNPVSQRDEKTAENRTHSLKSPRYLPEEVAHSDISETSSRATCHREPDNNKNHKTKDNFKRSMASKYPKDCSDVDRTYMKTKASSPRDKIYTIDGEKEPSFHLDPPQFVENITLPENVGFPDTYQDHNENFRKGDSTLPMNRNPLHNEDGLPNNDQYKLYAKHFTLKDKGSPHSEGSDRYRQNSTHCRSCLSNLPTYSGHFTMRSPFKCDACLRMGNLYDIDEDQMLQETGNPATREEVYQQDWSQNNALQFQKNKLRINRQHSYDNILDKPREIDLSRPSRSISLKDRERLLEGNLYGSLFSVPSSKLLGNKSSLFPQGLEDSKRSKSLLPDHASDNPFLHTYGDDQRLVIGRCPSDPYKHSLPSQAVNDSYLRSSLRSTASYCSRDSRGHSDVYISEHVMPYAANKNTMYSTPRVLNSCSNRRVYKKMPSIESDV

SMILES: [Zn+2] [zinc]
- Zn2+ Hill slope (nH) [1]: 0.64 ± 0.10 and 0.70 ± 0.03 and 0.77 ± 0.05
- Izn/Io 1 nM [1]: 0.90 ± 0.01 and 0.90 ± 0.05 and 0.86 ± 0.08
- Izn/Io 1 nM ([1]; +GNE (100 µM GNE-3419)): 0.97 ± 0.02
- Izn/Io 10 nM [1]: 0.68 ± 0.01 and 0.68 ± 0.04 and 0.68 ± 0.07
- Izn/Io 10 nM ([1]; +GNE (100 µM GNE-3419)): 0.88 ± 0.05
- Izn/Io 50 nM [1]: 0.45 ± 0.02 and 0.45 ± 0.05
- Izn/Io 50 nM ([1]; +GNE (100 µM GNE-3419)): 0.76 ± 0.08
- Izn/Io 500 nM [1]: 0.31 ± 0.02 and 0.33 ± 0.04
- Izn/Io 500 nM ([1]; +GNE (100 µM GNE-3419)): 0.65 ± 0.07
- Izn/Io 1000 nM [1]: 0.30 ± 0.06 and 0.28 ± 0.04 and 0.30 ± 0.03
- Izn/Io 1000 nM ([1]; +GNE (100 µM GNE-3419)): 0.58 ± 0.02
- Zn2+ maximal inhibition ([1]; fraction): 0.74 ± 0.05
- Zn2+ Hill slope (nH) ([1]; in the presence of 100 µM GNE-3419): 0.62 ± 0.17
- IC50 ([1]; read-out: Zn2+ IC50): 12 nM and 15.3 nM and 13 nM
- IC50 [2]: 720 ± 50 nM
- Zn2+ Hill slope (nH) [3]: 0.88 ± 0.05
- Izn/Io 0.1 μM ([3]; 0.1 μM zinc): 0.78 ± 0.07
- Izn/Io 0.3 μM ([3]; 0.3 μM zinc): 0.60 ± 0.03
- Izn/Io 1 μM ([3]; 1 μM zinc): 0.40 ± 0.03
- Izn/Io 3 μM ([3]; 3 μM zinc): 0.23 ± 0.03
- Izn/Io 10 μM ([3]; 10 μM zinc): 0.10 ± 0.03
- Zn2+ Hill slope (nH) [4]: 1.01 ± 0.01
- Izn/Io 0.1 μM ([4]; 0.1 μM zinc): 0.95 ± 0.07
- Izn/Io 1 μM ([4]; 1 μM zinc): 0.72 ± 0.08
- Izn/Io 10 μM ([4]; 10 μM zinc): 0.22 ± 0.07
- IC50 ([4]; read-out: Zn2+ IC50): 3060 ± 40 nM
- Zn2+ Hill slope (nH) [5]: 1.08 ± 0.04 and 1.20 ± 0.04 and 0.96 ± 0.10
- Izn/Io 0.1 μM ([5]; 0.1 μM zinc): 0.80 ± 0.02 and 0.87 ± 0.02 and 0.78 ± 0.01
- Izn/Io 0.3 μM ([5]; 0.3 μM zinc): 0.54 ± 0.03
- Izn/Io 1 μM ([5]; 1 μM zinc): 0.39 ± 0.005 and 0.46 ± 0.03 and 0.37 ± 0.03
- Izn/Io 3 μM ([5]; 3 μM zinc): 0.18 ± 0.09
- IC50 ([5]; read-out: Zn2+ IC50): 720 nM and 970 nM and 590 nM
